Results published in patent US6620810B2, “4-thioxo-4,7-dihydro-thieno[2,3-b]pyridine-5-carboxamides as antiviral agents” (Pharmacia & Upjohn Company, priority 2001, dated 2003).

How the values were obtained:
Type in all cases: biochemical
HCMV polymerase = molecular target: T1, HCMV polymerase (Human cytomegalovirus, UniProt P08546); experiment: HCMV polymerase scintillation proximity assay (Test A, modified version); conditions: modified SPA assay: compounds diluted in 100% DMSO, 4.5 mM DTT in polymerase buffer
T1 construct: made in house; host or cells: recombinant baculovirus-infected SF-9 cells
T1 sequence (P08546 whole entry): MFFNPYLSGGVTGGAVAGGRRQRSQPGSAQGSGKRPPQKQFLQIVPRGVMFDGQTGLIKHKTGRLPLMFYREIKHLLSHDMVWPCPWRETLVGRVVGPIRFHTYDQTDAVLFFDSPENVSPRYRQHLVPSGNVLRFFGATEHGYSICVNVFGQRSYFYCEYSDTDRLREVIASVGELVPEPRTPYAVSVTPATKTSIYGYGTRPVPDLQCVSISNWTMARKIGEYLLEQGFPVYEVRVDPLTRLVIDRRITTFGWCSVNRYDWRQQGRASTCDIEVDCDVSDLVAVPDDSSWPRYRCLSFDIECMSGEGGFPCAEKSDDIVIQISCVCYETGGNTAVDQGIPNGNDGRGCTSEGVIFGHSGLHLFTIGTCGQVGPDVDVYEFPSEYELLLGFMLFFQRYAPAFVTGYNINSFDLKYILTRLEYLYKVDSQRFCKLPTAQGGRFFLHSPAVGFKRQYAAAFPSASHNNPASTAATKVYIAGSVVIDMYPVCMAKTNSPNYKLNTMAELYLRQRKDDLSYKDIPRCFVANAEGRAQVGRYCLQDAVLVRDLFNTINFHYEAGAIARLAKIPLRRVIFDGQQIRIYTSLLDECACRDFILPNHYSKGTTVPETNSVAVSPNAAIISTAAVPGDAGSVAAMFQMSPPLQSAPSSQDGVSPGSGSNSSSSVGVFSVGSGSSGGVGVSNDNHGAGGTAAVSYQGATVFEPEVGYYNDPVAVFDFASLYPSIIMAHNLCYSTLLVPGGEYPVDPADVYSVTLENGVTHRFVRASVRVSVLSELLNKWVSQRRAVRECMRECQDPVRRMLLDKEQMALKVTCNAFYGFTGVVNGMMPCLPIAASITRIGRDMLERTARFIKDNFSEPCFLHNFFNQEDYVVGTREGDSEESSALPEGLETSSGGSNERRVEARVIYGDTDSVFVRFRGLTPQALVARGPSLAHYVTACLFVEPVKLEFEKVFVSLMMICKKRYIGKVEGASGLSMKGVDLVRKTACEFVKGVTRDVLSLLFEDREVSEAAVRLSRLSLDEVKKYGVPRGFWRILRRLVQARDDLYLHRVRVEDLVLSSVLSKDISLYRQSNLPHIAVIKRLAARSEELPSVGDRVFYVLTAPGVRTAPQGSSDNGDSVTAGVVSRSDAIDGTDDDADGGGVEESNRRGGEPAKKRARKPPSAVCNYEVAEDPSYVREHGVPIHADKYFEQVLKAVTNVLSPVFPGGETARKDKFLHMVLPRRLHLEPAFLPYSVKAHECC
Protocol: The HCMV polymerase assay is performed using a scintillation proximity assay (SPA) as described in several references, such as N. D. Cook, et al., Pharmaceutical Manufacturing International, pages 49-53 (1992); K. Takeuchi, Laboratory Practice, September issue (1992); U.S. Pat. No. 4,568,649 (1986); which are incorporated by reference herein. Reactions are performed in 96-well plates. The assay is conducted in 100 μl volume with 5.4 mM HEPES (pH 7.5), 11.7 mM KCl, 4.5 mM MgCl2, 0.36 mg/ml BSA, and 90 nM ^3H-dTTP. Assays are run with and without CHAPS, (3-[(3-cholamidopropyl)-dimethylammonio]-1-propane-sulfonate) at a final concentration of 2 mM. HCMV polymerase is diluted in enzyme dilution buffer containing 50% glycerol, 250 mM NaCl, 10 mM HEPES (pH 7.5), 100 μg/ml BSA, and 0.01% sodium azide. […] Plates are incubated 10 min. at 37° C., then equilibrated to room temperature, and counted on a Packard Topcount. Linear regressions are performed and IC50's are calculated using computer software.
A modified version of the above HCMV polymerase assay is performed as described above, but with the following changes: Compounds are diluted in 100% DMSO until final dilution into assay buffer. […] In Table 1, the term “nd” refers to activity data not determined.

HSV polymerase = HSV polymerase (Human herpesvirus 1, UniProt P04293); experiment: HSV polymerase assay (Table 1)
Sequence of HSV polymerase (P04293 whole entry): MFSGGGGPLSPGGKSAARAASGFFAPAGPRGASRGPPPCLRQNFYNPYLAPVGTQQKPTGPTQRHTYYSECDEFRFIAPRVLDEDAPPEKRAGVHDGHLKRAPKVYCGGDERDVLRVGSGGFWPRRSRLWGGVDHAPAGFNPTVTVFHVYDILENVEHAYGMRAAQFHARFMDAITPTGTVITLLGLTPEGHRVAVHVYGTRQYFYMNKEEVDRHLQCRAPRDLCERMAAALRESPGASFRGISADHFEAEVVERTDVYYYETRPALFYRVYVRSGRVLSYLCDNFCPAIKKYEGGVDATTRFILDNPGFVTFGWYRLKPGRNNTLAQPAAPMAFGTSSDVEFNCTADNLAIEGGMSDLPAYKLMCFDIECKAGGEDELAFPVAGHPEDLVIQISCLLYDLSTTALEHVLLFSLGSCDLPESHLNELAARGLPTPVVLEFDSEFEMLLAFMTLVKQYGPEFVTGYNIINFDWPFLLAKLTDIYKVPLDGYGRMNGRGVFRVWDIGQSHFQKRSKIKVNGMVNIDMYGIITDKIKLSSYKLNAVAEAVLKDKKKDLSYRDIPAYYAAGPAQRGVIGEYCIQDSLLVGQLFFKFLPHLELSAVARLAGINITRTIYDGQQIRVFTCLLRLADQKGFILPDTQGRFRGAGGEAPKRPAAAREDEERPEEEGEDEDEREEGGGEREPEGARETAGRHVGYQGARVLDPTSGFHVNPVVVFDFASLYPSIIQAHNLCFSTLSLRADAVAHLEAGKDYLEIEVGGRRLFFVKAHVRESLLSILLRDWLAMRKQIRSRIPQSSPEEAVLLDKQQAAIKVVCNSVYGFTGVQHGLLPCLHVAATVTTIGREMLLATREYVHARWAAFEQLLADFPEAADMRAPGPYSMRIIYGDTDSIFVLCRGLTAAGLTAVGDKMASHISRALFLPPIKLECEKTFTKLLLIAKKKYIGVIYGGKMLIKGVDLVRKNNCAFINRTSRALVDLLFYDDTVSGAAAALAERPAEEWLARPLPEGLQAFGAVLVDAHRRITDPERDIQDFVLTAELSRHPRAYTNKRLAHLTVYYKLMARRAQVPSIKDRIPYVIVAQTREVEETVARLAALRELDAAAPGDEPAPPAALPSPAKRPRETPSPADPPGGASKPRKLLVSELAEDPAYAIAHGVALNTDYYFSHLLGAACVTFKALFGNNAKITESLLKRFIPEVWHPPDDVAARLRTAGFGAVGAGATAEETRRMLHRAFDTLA

VZV polymerase = VZV polymerase (Varicella-zoster virus, UniProt P09252); experiment: VZV polymerase assay (Table 1)
Sequence of VZV polymerase (P09252 whole entry): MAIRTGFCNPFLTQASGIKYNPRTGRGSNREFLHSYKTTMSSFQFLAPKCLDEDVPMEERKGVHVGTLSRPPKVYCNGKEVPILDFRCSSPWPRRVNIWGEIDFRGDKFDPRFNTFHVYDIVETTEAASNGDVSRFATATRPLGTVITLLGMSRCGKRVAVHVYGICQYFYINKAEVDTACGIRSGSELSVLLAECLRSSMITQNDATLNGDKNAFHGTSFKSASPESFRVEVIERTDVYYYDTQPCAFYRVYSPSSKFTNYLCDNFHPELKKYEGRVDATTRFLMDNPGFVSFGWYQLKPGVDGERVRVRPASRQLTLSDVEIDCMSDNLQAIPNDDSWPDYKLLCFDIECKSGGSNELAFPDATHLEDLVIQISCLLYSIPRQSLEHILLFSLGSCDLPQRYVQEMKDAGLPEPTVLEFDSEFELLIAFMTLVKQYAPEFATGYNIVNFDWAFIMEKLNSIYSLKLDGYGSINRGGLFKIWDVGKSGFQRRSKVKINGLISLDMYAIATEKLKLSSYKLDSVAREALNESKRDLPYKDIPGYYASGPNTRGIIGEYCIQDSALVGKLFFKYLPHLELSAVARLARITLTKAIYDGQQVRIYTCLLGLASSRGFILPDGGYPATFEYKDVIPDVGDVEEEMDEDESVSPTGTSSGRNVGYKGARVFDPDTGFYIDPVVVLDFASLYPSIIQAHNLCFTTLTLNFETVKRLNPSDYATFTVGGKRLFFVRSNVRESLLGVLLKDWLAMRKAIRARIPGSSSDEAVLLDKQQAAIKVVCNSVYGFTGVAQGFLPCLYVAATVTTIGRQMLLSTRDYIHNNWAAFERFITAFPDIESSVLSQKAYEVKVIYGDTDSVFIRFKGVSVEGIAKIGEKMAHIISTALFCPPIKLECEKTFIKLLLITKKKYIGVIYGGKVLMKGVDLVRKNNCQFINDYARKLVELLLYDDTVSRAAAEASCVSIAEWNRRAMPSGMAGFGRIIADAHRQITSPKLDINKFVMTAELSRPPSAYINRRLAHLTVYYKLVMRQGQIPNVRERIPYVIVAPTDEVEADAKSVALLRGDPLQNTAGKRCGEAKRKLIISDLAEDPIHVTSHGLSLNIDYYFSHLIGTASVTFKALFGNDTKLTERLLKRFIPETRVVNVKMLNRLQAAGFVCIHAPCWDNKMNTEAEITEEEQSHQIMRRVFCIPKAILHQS

Cn1cc(C(=O)NCc2ccc(Cl)cc2)c(=S)c2cc(CN3CCOCC3)sc21 [Example 1, N-(4-chlorobenzyl)-7-methyl-2-(4-morpholinylmethyl)-4-thioxo-4,7-dihydrothieno[2,3-b]pyridine-5-carboxamide] gave an IC50 (HCMV polymerase) of 630 nM, an IC50 (HSV polymerase) of 160 nM and an IC50 (VZV polymerase) of 80 nM.
